Experiments:
Format in all cases: cell-based
[1] = biological target: T1, alpha 2A adrenergic receptor (Homo sapiens, UniProt P08913); test: RSAT (Receptor Selection and Amplification Technology) assay, alpha 2A; conditions: for EC50: NIH-3T3 cells cotransfected with receptor and Gq/i5; for efficacy or intrinsic activity (value in parentheses) Alpha 2A: ratio of maximal effect to that of standard full agonist brimonidine
T1 construct: expressed in transfected cells; host or cells: NIH-3T3 cells, transient cotransfection by calcium phosphate
T1 sequence (P08913 1-465): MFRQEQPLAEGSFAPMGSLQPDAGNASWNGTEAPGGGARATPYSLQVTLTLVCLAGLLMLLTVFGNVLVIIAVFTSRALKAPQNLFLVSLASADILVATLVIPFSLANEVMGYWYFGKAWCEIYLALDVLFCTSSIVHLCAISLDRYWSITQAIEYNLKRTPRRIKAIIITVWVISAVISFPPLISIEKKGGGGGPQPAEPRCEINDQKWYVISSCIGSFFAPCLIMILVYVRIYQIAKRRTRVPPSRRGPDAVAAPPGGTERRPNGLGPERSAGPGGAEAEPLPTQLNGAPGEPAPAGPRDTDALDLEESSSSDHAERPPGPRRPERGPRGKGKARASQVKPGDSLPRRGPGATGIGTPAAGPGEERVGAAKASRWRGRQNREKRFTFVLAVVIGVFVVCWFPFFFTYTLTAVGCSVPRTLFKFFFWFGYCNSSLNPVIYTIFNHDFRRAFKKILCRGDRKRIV
Description: (§1) Activity was measured using the RSAT (Receptor Selection and Amplification Technology) assay, developed by Receptor Technologies, Inc. of Winooski, Vt. (now Acadia Pharmaceuticals of San Diego, Calif.), adapted for use with recombinant alpha2 adrenergic receptors in collaboration with Allergan. The assay measures receptor-mediated loss of contact inhibition that results in selective proliferation of receptor-containing cells in a mixed population of confluent cells. The increase in cell number is assessed with an appropriate transfected marker gene such as β-galactosidase, the activity of which can be easily measured in a 96-well format. Receptors that activate the G protein, Gq, elicit this response. Alpha2 receptors, which normally couple to Gi, activate the RSAT response when coexpressed with a hybrid Gq protein that has a Gi receptor recognition domain, called Gq/i5.
(§2) The assay is conducted as follows. NIH-3T3 cells are plated at a density of 2×10^6 cells in 15 cm dishes and maintained in Dulbecco's modified Eagle's medium supplemented with 10% calf serum. One day later, cells are cotransfected by calcium phosphate precipitation with mammalian expression plasmids encoding p-SV-β-galactosidase (5-10 μg), receptor (1-2 μg) and G protein (1-2 μg). 40 μg salmon sperm DNA may also be included in the transfection mixture to increase transfection efficiency. Fresh media is added on the following day and 1-2 days later, cells are harvested and frozen in 50 assay aliquots. Transfectant cells are thawed and 100 μl added to 100 μl aliquots of various concentrations of drugs in triplicate in 96-well dishes. Incubations continue 72-96 hr at 37°. After washing with phosphate-buffered saline, β-galactosidase enzyme activity is determined by adding 200 μl of the chromogenic substrate (consisting of 3.5 mM o-nitrophenyl-β-D-galactopyranoside and 0.5% of the non-ionic surfactant nonidet P-40 in phosphate buffered saline), incubating overnight at 30° and measuring optical density at 420 nm. The absorbency is a measure of enzyme activity, which depends on cell number and reflects a receptor-mediated cell proliferation. The EC50 and maximal effect of each drug at each alpha2 receptor is determined. The efficacy or intrinsic activity is calculated as a ratio of the maximal effect of the drug to the maximal effect of a standard full agonist for each receptor subtype. Brimonidine, also called UK14304, is used as the standard agonist for the alpha2A, alpha2B and alpha2C receptors. The RSAT assay is also discussed in Messier et al. (1995) High throughput assays of cloned adrenergic, muscarinic, neurokinin and neurotrophin receptors in living mammalian cells, Pharmacol. Toxicol. 76:308-11; see also Conklin et al. (1993) Substitution of three amino acids switches receptor specificity of Gqα to that of Giα, Nature 363:274-6; Both of these papers are incorporated by reference herein.

[2] = biological target: T2, alpha 2B adrenergic receptor (Homo sapiens, UniProt P18089); test: RSAT (Receptor Selection and Amplification Technology) assay, alpha 2B; conditions: for EC50: NIH-3T3 cells cotransfected with receptor and Gq/i5; for efficacy or intrinsic activity (value in parentheses) Alpha 2B: ratio of maximal effect to that of standard full agonist brimonidine
T2 construct: expressed in transfected cells; host or cells: NIH-3T3 cells, transient cotransfection by calcium phosphate
T2 sequence (P18089 1-450): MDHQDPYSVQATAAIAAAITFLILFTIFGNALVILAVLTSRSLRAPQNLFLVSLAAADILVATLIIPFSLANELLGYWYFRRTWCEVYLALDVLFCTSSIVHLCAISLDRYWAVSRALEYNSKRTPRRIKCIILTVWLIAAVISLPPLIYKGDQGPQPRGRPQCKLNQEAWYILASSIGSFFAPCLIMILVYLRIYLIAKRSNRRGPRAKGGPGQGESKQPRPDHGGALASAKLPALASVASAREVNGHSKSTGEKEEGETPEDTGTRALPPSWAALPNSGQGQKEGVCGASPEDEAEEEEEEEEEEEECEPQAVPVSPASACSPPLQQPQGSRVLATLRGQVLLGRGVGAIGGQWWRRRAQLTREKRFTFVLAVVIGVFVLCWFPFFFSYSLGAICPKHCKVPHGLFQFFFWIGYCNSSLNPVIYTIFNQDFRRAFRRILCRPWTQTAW
Description: as §1, §2

[3] = biological target: T3, alpha 2C adrenergic receptor (Homo sapiens, UniProt P18825); test: RSAT (Receptor Selection and Amplification Technology) assay, alpha 2C; conditions: for EC50: NIH-3T3 cells cotransfected with receptor and Gq/i5; for efficacy or intrinsic activity (value in parentheses) Alpha 2C: ratio of maximal effect to that of standard full agonist brimonidine
T3 construct: expressed in transfected cells; host or cells: NIH-3T3 cells, transient cotransfection by calcium phosphate
T3 sequence (P18825 1-462): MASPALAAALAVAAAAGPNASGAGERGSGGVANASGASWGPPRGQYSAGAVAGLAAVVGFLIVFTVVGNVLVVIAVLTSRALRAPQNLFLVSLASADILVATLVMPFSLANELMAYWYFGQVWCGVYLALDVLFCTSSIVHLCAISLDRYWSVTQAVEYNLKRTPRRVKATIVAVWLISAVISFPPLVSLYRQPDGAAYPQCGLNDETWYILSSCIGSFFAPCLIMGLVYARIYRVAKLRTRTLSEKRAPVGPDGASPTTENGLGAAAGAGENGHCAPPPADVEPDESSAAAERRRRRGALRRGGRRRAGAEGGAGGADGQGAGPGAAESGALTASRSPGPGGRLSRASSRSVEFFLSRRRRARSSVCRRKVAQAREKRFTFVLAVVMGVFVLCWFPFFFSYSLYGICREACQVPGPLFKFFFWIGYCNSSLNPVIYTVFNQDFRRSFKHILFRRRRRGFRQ
Description: as §1, §2

EC50 [1] | EC50 [2] | efficacy or intrinsic activity (value in parentheses) Alpha 2B [2] | EC50 [3] | efficacy or intrinsic activity (value in parentheses) Alpha 2C [3] | efficacy or intrinsic activity (value in parentheses) Alpha 2A [1] | SMILES
≥ 210000 nM | 2390 nM | 0.55 | ≥ 210000 nM |  |  | OCCNC(=S)NCc1cccc(OC(F)(F)F)c1
≥ 210000 nM | 27 nM | 1.20 | 144 nM | 0.74 |  | OCCNC(=S)NCc1cc(F)ccc1O
930 nM | 9 nM | 0.96 | 45 nM | 0.78 | 0.39 | COc1ccc(F)cc1CNC(=S)NCCO
≥ 210000 nM | 141 nM | 1.08 | > 2000 nM |  |  | OCCNC(=S)NCc1c(F)cccc1I
136 nM | 5.5 nM | 1.03 | 41 nM | 0.88 | 0.52 | OCCNC(=S)NCc1cccc(Br)c1F
